The results in this text go back to patent publication US20260315487A1, “IKK-ALPHA INHIBITORS” (Cancer Research Technology Limited, priority 2023, published 2026).

In one assay the target is T1, IKKα (Homo sapiens, UniProt O15111).
T1 sequence (O15111 1-745): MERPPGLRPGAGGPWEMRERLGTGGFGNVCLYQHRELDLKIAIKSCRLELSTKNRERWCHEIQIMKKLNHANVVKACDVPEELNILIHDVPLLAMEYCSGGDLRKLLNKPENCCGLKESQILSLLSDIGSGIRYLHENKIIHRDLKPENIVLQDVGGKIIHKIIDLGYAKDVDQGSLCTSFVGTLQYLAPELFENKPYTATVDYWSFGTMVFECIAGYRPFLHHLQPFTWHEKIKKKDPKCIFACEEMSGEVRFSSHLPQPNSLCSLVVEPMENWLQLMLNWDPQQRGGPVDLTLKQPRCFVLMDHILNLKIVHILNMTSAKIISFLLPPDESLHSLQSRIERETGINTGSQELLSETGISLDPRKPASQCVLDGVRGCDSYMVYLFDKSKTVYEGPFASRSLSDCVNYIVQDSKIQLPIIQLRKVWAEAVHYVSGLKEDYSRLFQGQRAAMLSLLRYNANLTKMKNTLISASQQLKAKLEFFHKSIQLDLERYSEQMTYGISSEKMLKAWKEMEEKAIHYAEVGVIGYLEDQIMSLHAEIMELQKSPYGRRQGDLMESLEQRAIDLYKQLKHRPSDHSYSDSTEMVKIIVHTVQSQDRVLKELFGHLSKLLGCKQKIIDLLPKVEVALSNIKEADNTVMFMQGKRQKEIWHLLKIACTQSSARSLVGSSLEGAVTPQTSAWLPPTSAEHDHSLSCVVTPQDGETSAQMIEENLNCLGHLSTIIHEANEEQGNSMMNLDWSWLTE
Nature of the assay: in-house DELFIA kinase assay, IKKα. It is filed as biochemical. The source says: To examine the pyrrolo[2,3 -b]pyridines as an alternative scaffold, we adopted the AIPP core because it had similar dimensions to 1 SU909, with HBD/HBA motifs positioned at the scaffold extremities to interact with both the hinge region and the G-loop wall of IKKα, a rationale we had previously proposed as the basis for imparting selectivity. A preliminary set of AIPP derivatives was designed to explore its utility as an IKK-targeting scaffold, whilst incorporating additional functionality through which to introduce selectivity for the IKKα isoform (2-4 SU1087, SU1266 and SU1253; FIG. 3). This was achieved by initially adopting two different approaches: either appending a hydrophobic moiety to the pyrrolo[2,3 -b]pyridine motif as a fused form to afford the tricyclic derivatives 2 and 3 SU1266 and SU1087, or as a phenyl substituent to introduce flexibility with the central pyrrolo[2,3 -b]pyridine moiety in 4 SU1253 . […] The pyrrolo[2,3 -b]pyridine was bound to the hinge region in the classical HBA/HBD motif with the GK+3 NH and C═O backbone, whilst the aminoindazole projected towards the top of the pocket to interact with the G-loop (FIG. 4A). […] In both isoforms, the 2 -phenyl moiety was oriented out from the hinge towards the exposed solvent area.

Another assay concerns the target T2, IKKβ (Homo sapiens, UniProt O14920).
T2 sequence (O14920 1-756): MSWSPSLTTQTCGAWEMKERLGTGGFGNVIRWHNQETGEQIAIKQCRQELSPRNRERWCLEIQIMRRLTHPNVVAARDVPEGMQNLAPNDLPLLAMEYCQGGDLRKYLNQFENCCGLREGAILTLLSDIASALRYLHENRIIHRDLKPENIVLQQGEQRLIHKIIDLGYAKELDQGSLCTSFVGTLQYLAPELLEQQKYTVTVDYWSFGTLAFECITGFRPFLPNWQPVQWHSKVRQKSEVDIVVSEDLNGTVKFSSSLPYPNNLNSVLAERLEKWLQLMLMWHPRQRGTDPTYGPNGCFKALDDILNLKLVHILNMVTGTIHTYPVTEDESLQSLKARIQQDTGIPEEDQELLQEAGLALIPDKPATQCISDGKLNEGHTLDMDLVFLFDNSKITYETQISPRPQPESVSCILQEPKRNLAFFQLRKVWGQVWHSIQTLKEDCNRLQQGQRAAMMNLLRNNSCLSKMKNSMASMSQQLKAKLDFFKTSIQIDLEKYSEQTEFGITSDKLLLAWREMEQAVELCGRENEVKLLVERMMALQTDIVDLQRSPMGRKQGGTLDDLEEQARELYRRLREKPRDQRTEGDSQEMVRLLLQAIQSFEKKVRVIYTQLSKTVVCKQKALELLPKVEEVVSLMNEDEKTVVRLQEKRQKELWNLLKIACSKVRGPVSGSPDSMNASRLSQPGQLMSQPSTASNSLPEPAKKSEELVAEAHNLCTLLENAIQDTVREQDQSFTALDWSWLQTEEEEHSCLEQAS
As to the kind of experiment: in-house DELFIA kinase assay, IKKβ. The class given is biochemical. The source says: To examine the pyrrolo[2,3 -b]pyridines as an alternative scaffold, we adopted the AIPP core because it had similar dimensions to 1 SU909, with HBD/HBA motifs positioned at the scaffold extremities to interact with both the hinge region and the G-loop wall of IKKα, a rationale we had previously proposed as the basis for imparting selectivity. A preliminary set of AIPP derivatives was designed to explore its utility as an IKK-targeting scaffold, whilst incorporating additional functionality through which to introduce selectivity for the IKKα isoform (2-4 SU1087, SU1266 and SU1253; FIG. 3). This was achieved by initially adopting two different approaches: either appending a hydrophobic moiety to the pyrrolo[2,3 -b]pyridine motif as a fused form to afford the tricyclic derivatives 2 and 3 SU1266 and SU1087, or as a phenyl substituent to introduce flexibility with the central pyrrolo[2,3 -b]pyridine moiety in 4 SU1253 .

As to `CN1CCN(C(=O)c2cccc(-c3cc4c(-c5ccc6[nH]nc(N)c6c5)ccnc4[nH]3)c2)CC1` [5v SU1312, (3-(4-(3 Amino-1 H-indazol-5-yl)-1 H-pyrrolo[2,3-b]pyridin-2-yl)phenyl)(4-methylpiperazin-1-y)methanone], the Ki was 24 nM at IKKα and 215 nM at IKKβ.

For the molecule `Nc1n[nH]c2ccc(-c3ccnc4[nH]c(-c5ccnc(OCCc6ccccc6)c5)cc34)cc12` [6l SU1621, 5-(2-(2 -Phenethoxypyridin-4-yl)-1 H-pyrrolo[2,3-b]pyridin-4-yl)-1 H-indazol-3-amine], the Ki was determined as 42 nM at IKKα and 1600 nM on IKKβ.

As to `COc1cc(F)cc(-c2cc3c(-c4ccc5[nH]nc(N)c5c4)ccnc3[nH]2)c1` [5g SU1373, 5-(2-(3 -Fluoro-5-methoxyphenyl)-1 H-pyrrolo[2,3-b]pyridin-4-yl)-1 H-indazol-3-amine], the results for the inhibition constant Ki at IKKα and on IKKβ were 3 nM and 32 nM, respectively.

Regarding `Nc1n[nH]c2ccc(-c3ccnc4[nH]c(-c5cncc(OCc6ccccc6)c5)cc34)cc12` [6e SU1337, 5-(2-(5-(Benzyloxy)pyridin-3-yl)-1 H-pyrrolo[2,3-b]pyridin-4-yl)-1 H-indazol-3-amine], the Ki at IKKα was found to be 21 nM; on IKKβ, 1550 nM.

`Nc1n[nH]c2ccc(-c3ccnc4[nH]c(-c5ccccc5O)cc34)cc12` [5a SU1354, 2-(4-(3 -Amino-1 H-indazol-5-yl)-1 H-pyrrolo[2,3-b]pyridin-2-yl)phenol]: the Ki at IKKα turned out to be 4 nM; on IKKβ it was 42 nM.

As for `Nc1n[nH]c2ccc(-c3ccnc4[nH]c(-c5cccc(C(=O)O)c5)cc34)cc12` [5h SU1303, 3-(4-(3 -Amino-1 H-indazol-5-yl)-1 H-pyrrolo[2,3-b]pyridin-2-yl)benzoic acid], the inhibitory constant (Ki) on IKKα came to 8 nM; at IKKβ it was 168 nM.

For `CS(=O)(=O)c1cccc(-c2cc3c(-c4ccc5[nH]nc(N)c5c4)ccnc3[nH]2)c1` [5k SU1374, 5-(2-(3-(Methylsulfonyl)phenyl)-1 H-pyrrolo[2,3-b]pyridin-4-yl)-1 H-indazol-3-amine], the Ki at IKKα came out at 3 nM; at IKKβ, 36 nM.

As to `Nc1cccc(-c2cc3c(-c4ccc5[nH]nc(N)c5c4)ccnc3[nH]2)c1` [5c SU1304, 5-(2-(3 -Aminophenyl)-1 H-pyrrolo[2,3-b]pyridin-4-yl)-1 H-indazol-3-amine], the Ki worked out at 5 nM on IKKα and 28 nM on IKKβ.

For the molecule `Cc1ccc(S(=O)(=O)Nc2cccc(-c3cc4c(-c5ccc6[nH]nc(N)c6c5)ccnc4[nH]3)c2)cc1` [5t SU1278, N-(3-(4-(3 -Amino-1 H-indazol-5-yl)-1 H-pyrrolo[2,3-b]pyridin-2-yl)phenyl)-4-methylbenzensulfonamide], the inhibition constant (Ki) on IKKα is 10 nM. At IKKβ, the “IKKβ inhibition, in words” value is “lowest activity against IKKβ” and the affinity, expressed as Ki, was 1050 nM.

As to `Nc1n[nH]c2ccc(-c3ccnc4[nH]c(-c5cc(F)cc(OCc6ccccc6)c5)cc34)cc12` [6a SU1371, 5-(2-(3-(Benzyloxy)-5-fluorophenyl)-1 H-pyrrolo[2,3-b]pyridin-4-yl)-1 H-indazol-3-amine], the inhibition constant Ki on IKKα was determined as 59 nM; on IKKβ, 5030 nM.

For `Nc1n[nH]c2ccc(-c3ccnc4[nH]c(-c5cc(OCc6ccccc6)ccn5)cc34)cc12` [6j SU1602, 5-(2-(4-(Benzyloxy)pyridin-2-yl)-1 H-pyrrolo[2,3-b]pyridin-4-yl)-1 H-indazol-3-amine], the Ki at IKKα worked out at 25 nM; on IKKβ it was 2300 nM.

As to `Nc1n[nH]c2ccc(-c3ccnc4[nH]c5c(c34)CCCC5)cc12` [2 SU1266, 5-(6,7,8,9 -Tetrahydro-5 H-pyrido[2,3-b]indol-4-yl)-1 H-indazol-3-amine], the results for the Ki at IKKα and at IKKβ were 2 nM and 77 nM, respectively.

In the case of `NC(=O)c1cccc(-c2cc3c(-c4ccc5[nH]nc(N)c5c4)ccnc3[nH]2)c1` [5i SU1294, 3-(4-(3 -Amino-1 H-indazol-5-yl)-1 H-pyrrolo[2,3-b]pyridin-2-yl)benzamide], the Ki at IKKα turned out to be 5 nM; at IKKβ it was 159 nM.

With `Nc1n[nH]c2ccc(-c3ccnc4[nH]c(-c5ccccc5OCc5ccccc5)cc34)cc12` [5q SU1353, 5-(2-(2-(Benzyloxy)phenyl)-1 H-pyrrolo[2,3-b]pyridin-4-yl)-1 H-indazol-3-amine], the inhibitory constant (Ki) is 57 nM on IKKα and 1060 nM at IKKβ. The “IKKβ inhibition, in words” value at IKKβ is “lowest activity against IKKβ”.

Consider `COCCOCc1cc(OCc2ccccc2)cc(-c2cc3c(-c4ccc5[nH]nc(N)c5c4)ccnc3[nH]2)c1` [6b SU1358, 5-(2-(3-(Benzyloxy)-5-((2-methoxyethoxy)methyl)phenyl)-1 H-pyrrolo[2,3-b]pyridin-4-yl)-1 H-indazol-3-amine], for which the Ki at IKKα stood at 29 nM; on IKKβ, 1220 nM.

Regarding `Nc1n[nH]c2ccc(-c3ccnc4[nH]c5ccccc5c34)cc12` [3 SU1087, 5-(9 H-pyrido[2,3-b]indol-4-yl)-1 H-indazol-3-amine], the inhibition constant (Ki) at IKKα turned out to be 3 nM; on IKKβ, 5 nM.

Consider `COCCC(=O)Nc1cccc(-c2cc3c(-c4ccc5[nH]nc(N)c5c4)ccnc3[nH]2)c1` [5l SU1317, N-(3-(4-(3 -Amino-1 H-indazol-5-yl)-1 H-pyrrolo[2,3-b]pyridin-2-yl)phenyl)-3-methoxypropanamide], for which the Ki on IKKα came to 6 nM; at IKKβ, 25 nM. Moreover, on IKKβ, the “IKKβ inhibition, in words” value is “good IKKβ inhibition”.

In turn, `Nc1n[nH]c2ccc(-c3ccnc4[nH]c(-c5cccc(OCCN6CCOCC6)c5)cc34)cc12` [5y SU1336, 5-(2-(3-(2 -Morpholinoethoxy)phenyl)-1 H-pyrrolo[2,3-b]pyridin-4-yl)-1 H-indazol-3-amine] registered an inhibition constant (Ki) on IKKα of 9 nM. On IKKβ, the “IKKβ inhibition, in words” value is “good IKKβ inhibition” and the inhibition constant (Ki) came out at 29 nM.

Regarding `COCCNc1cc(OCc2ccccc2)cc(-c2cc3c(-c4ccc5[nH]nc(N)c5c4)ccnc3[nH]2)c1` [6c SU1365, 5-(2-(3-(Benzyloxy)-5-((2-methoxyethyl)amino)phenyl)-1 H-pyrrolo[2,3-b]pyridin-4-yl)-1 H-indazol-3-amine], the Ki at IKKα was determined as 26 nM; on IKKβ, 1530 nM.

Regarding `Nc1n[nH]c2ccc(-c3ccnc4[nH]c(-c5cc(F)nc(CNc6ccccc6)c5)cc34)cc12` [6f SU1394, 5-(2-(2 -Fluoro-6-((phenylamino)methyl)pyridin-4-yl)-1 H-pyrrolo[2,3-b]pyridin-4-yl)-1 H-indazol-3-amine], the inhibition constant Ki stood at 33 nM on IKKα and 503 nM on IKKβ.

Usually Ki stands for a measure of affinity in units of concentration, obtained from inhibition or displacement. A high value points to weaker binding.
